{"source": "patent US20050187170A1", "about": "“Enhancing the efficiency of RNA polymerase inhibitors by using inosine monophosphate dehydrogenase inhibitors” (BIOCRYST PHARMACEUTICALS, INC., priority 2003, published 2005)", "origin": "cited, not measured here", "key": {"human IMPDH type I": {"target": "human IMPDH type I (Homo sapiens, UniProt P20839)", "sequence (P20839 whole entry)": "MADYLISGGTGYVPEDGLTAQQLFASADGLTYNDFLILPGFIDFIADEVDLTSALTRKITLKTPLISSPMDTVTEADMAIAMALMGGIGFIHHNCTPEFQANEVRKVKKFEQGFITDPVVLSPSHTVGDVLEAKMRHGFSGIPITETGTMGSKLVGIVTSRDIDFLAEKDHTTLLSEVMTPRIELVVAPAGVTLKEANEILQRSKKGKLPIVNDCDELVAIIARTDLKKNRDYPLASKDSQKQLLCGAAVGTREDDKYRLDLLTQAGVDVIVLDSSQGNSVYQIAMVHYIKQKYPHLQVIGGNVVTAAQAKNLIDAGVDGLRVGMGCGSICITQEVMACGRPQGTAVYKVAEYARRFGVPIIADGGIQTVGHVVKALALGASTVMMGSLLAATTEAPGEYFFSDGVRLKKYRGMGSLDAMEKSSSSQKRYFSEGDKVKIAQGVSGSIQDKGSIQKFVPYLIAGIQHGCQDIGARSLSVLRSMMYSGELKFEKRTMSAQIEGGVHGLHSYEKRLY", "details": "read-out: Ki, IMPDH type I; type I expressed in normal cells; Carr, et al."}, "HIV": {"system": "HIV", "details": "human peripheral blood CD4+ lymphocytes and macrophages, established human cell lines"}}}
{"smiles": "COc1c(C)c2c(c(O)c1C/C=C(\\C)CCC(=O)O)C(=O)OC2", "note": "[MPA, Mycophenolic acid]", "values": [{"measurement": "Ki", "setting": "human IMPDH type I", "value": "33 to 37", "unit": "nM"}, {"measurement": "anti-HIV activity in vitro", "setting": "HIV", "value": "strong anti-HIV activity"}]}
